Assay results taken from patent publication US12390441B2, “Immunomodulating o-het/aryl azalides” (Zoetis Services LLC, priority 2020, dated 2025).

Legend:
[1] = system: Lung bacteria isolated at necropsy; assay: MIC of recovered isolates, natural bovine respiratory disease study
Method: The primary clinical endpoint for efficacy was treatment failure/success over a 14-day observation period. Clinically normal beef calves (150-200 kg) at moderate risk for BRD were dosed on arrival to the feedlot. Animals (N=114/group) received saline (T01), 5 mg/kg M9 (T02) or 10 mg/kg M9 (T03); or Zactran (T04). […] Bacterial isolates were collected at necropsy and MICs were evaluated (Table 4).

P. multocida 46572 = assay: In vivo mouse lung infection challenge model (murine); design: species or system CD-1 female mice
Outline: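 CD-1 female mice were challenged intranasally with mid-log P. multocida 46572 (target 5×10^2 CFU/mouse), then given 20 mg/kg subcutaneously in buffered (~pH 5.4) propylene glycol/monothioglycerol/water. Mortality was followed to Day 10, analysed by generalized mixed model and survival analysis; harmonized survival is relative to vehicle and positive controls.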

[2] = system: M. haemolytica (OSU-012103-BHI); assay: In vivo bovine lung infection (intratracheal) challenge model
[3] = H. somni (25) lung isolates at necropsy

CCCNC[C@]1(O)[C@H](C)O[C@@H](O[C@H]2[C@H](C)[C@@H](O[C@@H]3O[C@H](C)C[C@H](NC)[C@H]3O)[C@](C)(O)C[C@@H](C)CN[C@H](C)[C@@H](O)[C@](C)(O)[C@@H](CC)OC(=O)[C@@H]2C)C[C@@]1(C)OC [Example M9, (2R,3S,4R,5R,8R,10R,11R,12S,13S,14R)-2-ethyl-3,4,10-trihydroxy-13-(((2R,4R,5S,6S)-5-hydroxy-4-methoxy-4,6-dimethyl-5-((propylamino)methyl)-tetrahydro-2H-pyran-2-yl)oxy)-11-(((2S,3R,4S,6R)-3-hydroxy-6-methyl-4-(methylamino)tetrahydro-2H-pyran-2-yl)oxy)-3,5,8,10,12,14-hexamethyl-1-oxa-6-azacyclopentadecan-15-one]
MIC50 [1, 3]: 32 µg/mL | MIC90 [1, 3]: 32 µg/mL | MIC Range [1, 3]: 8 to 64 µg/mL | MIC, BRD bacterial isolates collected at necropsy ([1]; some of the isolates): < 64 µg/mL | Mouse survival (P. multocida 46572; M9 positive control, 20 mg/kg): 90-100% | clinical efficacy, P. multocida infection in mice (P. multocida 46572; mouse, in vivo): clinically efficacious | mortality ([2]; No challenge, M9 10 mg/kg (T04)): 0/6 | Mortality (%) ([2]; second intratracheal challenge study, 10 mg/kg (T05)): 12.5%
